Laboratory results published in patent US7892350B2, “Sacrificial agents for fly ash concrete” (Boral Material Technologies Inc., priority 2003, dated 2011).
Where two headings read alike, the source gives them in different places.

Experiment: Second sacrificial agent testing protocol: paste air measurements with DDBS (0.0125 wt %) and rating; for Overall performance rating (second protocol rating): key: 0: Fail; 1: Poor; 2: Good; 3: Preferred; 4: Most preferred; for SA Rating (0-4): key: 0: Fail; 1: Poor; 2: Good; 3: Preferred; 4: Most preferred
Description: The second sacrificial agents evaluation protocol has been designed to assess the relative potential value of candidate sacrificial agents with a maximum of five paste air measurements.
The first two measurements (of entrained air) are carried out with a standard AEA in a portland cement paste and in a FA:cement paste; these two tests provide reference values which can be used for the relative assessment of a series of sacrificial agents. The other three paste air measurements pertain to the properties and effectiveness of the sacrificial agents.
1. Measurement of the air entrained by a standard air-entraining admixture in a cement paste of fixed composition and fluidity; the latter is a reference system which provides ‘reference’ air entrainment values (‘A’ in FIG. 8).
2. […] The difference between ‘B’ and ‘A’ in FIG. 8 is the reduction in air entrainment due to the presence of the fly ash; this is illustrated as ‘C’ in FIG. 8.
In the present SA testing and evaluation protocol, the fly ash selected should remain the same for the entire set of additives tested, in order to provide reliable relative performance ranking. For the present series of test, the Fly Ash selected was the one identified as B1 in Table 1 below; the physico-chemical properties of this fly ash are reported in Table 1.
In testing for the relative performance of the sacrificial agent, the sacrificial agent dosage was chosen in the range 0-0.1 wt %, which corresponds to typical dosage values observed in paste, mortar and concrete tests reported in Tables 2, 3 and 4 and Tables 7 to 34.
3. Measurement of the air entrainment of the SA, by itself, in a cement-only paste at a dosage of 0.1 wt %; this is illustrated as ‘D’ in FIG. 8.
4. Measurement of the air entrained by DDBS in the FA-cement paste comprising 0.05% wt SA, under the same conditions as described in 2 above. The air entrainment value observed in this system, compared to that observed in the absence of the SA, yields the air recovery due to the SA, and is illustrated schematically as ‘E’ in FIG. 8.
5. Same as in 4 above, but with a higher SA concentration at 0.1 wt %; the air entrainment observed, again compared to the value observed in the absence of the SA, yields a second value of air recovery by the SA and is illustrated as ‘F’ in FIG. 8.
For the relative performance rating of the group of products chosen as potential SA and listed in Table 36, the following rating scheme (Tables A and B) was adopted (referring to FIG. 8 and quantities defined therein):
1: Chemical name of compound tested as potential sacrificial agent • Col. 2: Level of air entrainment by the candidate sacrificial agent, at a concentration of 0.1 wt %, in a Portland cement paste ([…]) • Col. […] 5: Sacrificial agent overall rating index (described below) • Col. 6: Hydrophilic-Lipophilic Balance (HLB) values of candidate sacrificial agent (source and significance of HLB data given below) • Col. 7: Logarithm of the Oil(octanol)/water partition coefficient (Kow) of the candidate sacrificial agents (source and significance of data given below).

[1] = B1 FA/cement paste, 0.0125 wt % DDBS, 0.05 wt % SA
[2] = B1 FA/cement paste, 0.0125 wt % DDBS, 0.10 wt % SA
[3] = Portland cement paste (PCA), […]
[4] = sacrificial agent overall rating index
[5] = sum of ratings of air entrainment recovery by 0.05% and 0.1% SA, DDBS 0.0125 wt %, 50:50 B1 fly ash:cement paste

CCCCCCCC(=O)OC [Methyloctanoate]
B1 + 0.0125% DDBS + 0.05% SA (air entrainment) [1]: 4.8
B1 + 0.0125% DDBS + 0.1% SA (air entrainment) [2]: 2.2
PCA + 0.1% SA (level of air entrainment by the candidate sacrificial agent) [3]: 0.0
SA Rating (0-4) [4]: 2
Overall performance rating (second protocol rating) [5]: 2

CCc1ccc(S(=O)(=O)O)cc1 [4-Ethyl benzene sulfonic acid]
B1 + 0.0125% DDBS + 0.05% SA (air entrainment) [1]: 4.8
B1 + 0.0125% DDBS + 0.1% SA (air entrainment) [2]: 6.2
PCA + 0.1% SA (level of air entrainment by the candidate sacrificial agent) [3]: 1.3
SA Rating (0-4) [4]: 3
Overall performance rating (second protocol rating) [5]: 3

OCCO [Ethylene Glycol]
B1 + 0.0125% DDBS + 0.05% SA (air entrainment): 2.4
B1 + 0.0125% DDBS + 0.1% SA (air entrainment): 2.8
PCA + 0.1% SA (level of air entrainment by the candidate sacrificial agent): 0.0
SA Rating (0-4): 0

CN1CCCC1=O [1-Methyl-2-Pyrrolidinone]
B1 + 0.0125% DDBS + 0.05% SA (air entrainment) [1]: 3.6
B1 + 0.0125% DDBS + 0.1% SA (air entrainment) [2]: 3.8
PCA + 0.1% SA (level of air entrainment by the candidate sacrificial agent) [3]: 1.9
SA Rating (0-4) [4]: 0

CCC(C)O (centres unmarked) [2-Butanol]
B1 + 0.0125% DDBS + 0.05% SA (air entrainment): 6.0
B1 + 0.0125% DDBS + 0.1% SA (air entrainment): 6.6
Overall performance rating (second protocol rating): 4
PCA + 0.1% SA (level of air entrainment by the candidate sacrificial agent): 1.4
SA Rating (0-4): 4

CCCCCCCCCCO [1-Decanol]
B1 + 0.0125% DDBS + 0.05% SA (air entrainment) (B1 FA/cement paste, […]): 2.1
B1 + 0.0125% DDBS + 0.1% SA (air entrainment) (B1 FA/cement paste, […]): 1.7
PCA + 0.1% SA (level of air entrainment by the candidate sacrificial agent) [3]: 0.0
SA Rating (0-4) [4]: 0

CC(O)C(C)O (centres unmarked) [2,3-Butanediol]
B1 + 0.0125% DDBS + 0.05% SA (air entrainment) (B1 FA/cement paste, […]): 3.6
B1 + 0.0125% DDBS + 0.1% SA (air entrainment) (B1 FA/cement paste, […]): 3.7
PCA + 0.1% SA (level of air entrainment by the candidate sacrificial agent) [3]: 1.2
SA Rating (0-4) [4]: 0

O=C1OCCO1 [Ethylene carbonate]
B1 + 0.0125% DDBS + 0.05% SA (air entrainment) (B1 FA/cement paste, […]): 2.5
B1 + 0.0125% DDBS + 0.1% SA (air entrainment) (B1 FA/cement paste, […]): 1.9
PCA + 0.1% SA (level of air entrainment by the candidate sacrificial agent) [3]: 0.0
SA Rating (0-4) [4]: 0

O=P(O)(O)OP(=O)(O)OP(=O)(O)O [Sodium tripolyphosphate]
B1 + 0.0125% DDBS + 0.05% SA (air entrainment) [1]: 2.2
B1 + 0.0125% DDBS + 0.1% SA (air entrainment) [2]: 1.9
PCA + 0.1% SA (level of air entrainment by the candidate sacrificial agent) [3]: 0.2
SA Rating (0-4) [4]: 0

OCCOCCOCCO [tri-Ethylene Glycol]
Overall performance rating (second protocol rating): 1
B1 + 0.0125% DDBS + 0.05% SA (air entrainment) (B1 FA/cement paste, […]): 3.1
B1 + 0.0125% DDBS + 0.1% SA (air entrainment) (B1 FA/cement paste, […]): 4.1
PCA + 0.1% SA (level of air entrainment by the candidate sacrificial agent) [3]: 0.9
SA Rating (0-4) [4]: 1

CCCCCO [1-Pentanol]
Overall performance rating (second protocol rating): 3
B1 + 0.0125% DDBS + 0.05% SA (air entrainment) (B1 FA/cement paste, […]): 4.9
B1 + 0.0125% DDBS + 0.1% SA (air entrainment) (B1 FA/cement paste, […]): 4.7
PCA + 0.1% SA (level of air entrainment by the candidate sacrificial agent) [3]: 0.9
SA Rating (0-4) [4]: 3

CC(O)CO (centres unmarked) [Propylene Glycol]
B1 + 0.0125% DDBS + 0.05% SA (air entrainment) (B1 FA/cement paste, […]): 3.0
B1 + 0.0125% DDBS + 0.1% SA (air entrainment) (B1 FA/cement paste, […]): 3.6
PCA + 0.1% SA (level of air entrainment by the candidate sacrificial agent) [3]: 0.5
SA Rating (0-4) [4]: 0

O=C(O)CCCCC(=O)O [Adipic acid]
B1 + 0.0125% DDBS + 0.05% SA (air entrainment) (B1 FA/cement paste, […]): 1.9
B1 + 0.0125% DDBS + 0.1% SA (air entrainment) (B1 FA/cement paste, […]): 2.2
PCA + 0.1% SA (level of air entrainment by the candidate sacrificial agent) [3]: 0.2
SA Rating (0-4) [4]: 0

CCOCCO [Ethylene Glycol Ethyl Ether]
Overall performance rating (second protocol rating): 4
B1 + 0.0125% DDBS + 0.05% SA (air entrainment) (B1 FA/cement paste, […]): 5.0
B1 + 0.0125% DDBS + 0.1% SA (air entrainment) (B1 FA/cement paste, […]): 6.8
PCA + 0.1% SA (level of air entrainment by the candidate sacrificial agent) [3]: 1.2
SA Rating (0-4) [4]: 4

CC(=O)CC(C)C [Methyl isobutylketone]
Overall performance rating (second protocol rating) [5]: 2

C[S+](C)[O-] [Dimethylsulfoxide]
B1 + 0.0125% DDBS + 0.05% SA (air entrainment) (B1 FA/cement paste, […]): 2.5
B1 + 0.0125% DDBS + 0.1% SA (air entrainment) (B1 FA/cement paste, […]): 3.1
PCA + 0.1% SA (level of air entrainment by the candidate sacrificial agent) [3]: 0.0
SA Rating (0-4) [4]: 0

CCCCCC(=O)OCC [Ethylcaproate]
B1 + 0.0125% DDBS + 0.05% SA (air entrainment) [1]: 4.3
B1 + 0.0125% DDBS + 0.1% SA (air entrainment) [2]: 2.4
PCA + 0.1% SA (level of air entrainment by the candidate sacrificial agent) [3]: 0.0
SA Rating (0-4) [4]: 1
Overall performance rating (second protocol rating) [5]: 1

Nc1ccccc1 [Aniline]
Overall performance rating (second protocol rating) [5]: 2

CCCCCCCCCCCCCCCC(=O)OC [Methylpalmitate]
Overall performance rating (second protocol rating): 2
B1 + 0.0125% DDBS + 0.05% SA (air entrainment) (B1 FA/cement paste, […]): 5.3
B1 + 0.0125% DDBS + 0.1% SA (air entrainment) (B1 FA/cement paste, […]): 3.4
PCA + 0.1% SA (level of air entrainment by the candidate sacrificial agent) [3]: 2.5
SA Rating (0-4) [4]: 2

COP(=O)([O-])OC.[Na+] [Dimethylphosphate Na]
B1 + 0.0125% DDBS + 0.05% SA (air entrainment) (B1 FA/cement paste, […]): 2.5
B1 + 0.0125% DDBS + 0.1% SA (air entrainment) (B1 FA/cement paste, […]): 2.7
PCA + 0.1% SA (level of air entrainment by the candidate sacrificial agent) [3]: 1.3
SA Rating (0-4) [4]: 0

CCCC=O [Butyraldehyde]
Overall performance rating (second protocol rating): 2
B1 + 0.0125% DDBS + 0.05% SA (air entrainment) (B1 FA/cement paste, […]): 4.0
B1 + 0.0125% DDBS + 0.1% SA (air entrainment) (B1 FA/cement paste, […]): 4.0
PCA + 0.1% SA (level of air entrainment by the candidate sacrificial agent) [3]: 0.0
SA Rating (0-4) [4]: 2

P(EG-ran-propylene-glycol) 2500
Overall performance rating (second protocol rating): 4

CC[N+](CC)(CC)CC.[OH-] [Tetraethyl ammonium hydroxide]
B1 + 0.0125% DDBS + 0.05% SA (air entrainment): 2.3
B1 + 0.0125% DDBS + 0.1% SA (air entrainment): 3.0
PCA + 0.1% SA (level of air entrainment by the candidate sacrificial agent): 0.1
SA Rating (0-4): 0

CCC(O)CC [3-Pentanol]
B1 + 0.0125% DDBS + 0.05% SA (air entrainment) [1]: 6.1
B1 + 0.0125% DDBS + 0.1% SA (air entrainment) [2]: 6.3
PCA + 0.1% SA (level of air entrainment by the candidate sacrificial agent) [3]: 0.5
SA Rating (0-4) [4]: 4
Overall performance rating (second protocol rating) [5]: 4

CCCOCCO [Ethylene Glycol n-Propyl Ether]
B1 + 0.0125% DDBS + 0.05% SA (air entrainment) [1]: 7.4
B1 + 0.0125% DDBS + 0.1% SA (air entrainment) [2]: 7.4
PCA + 0.1% SA (level of air entrainment by the candidate sacrificial agent) [3]: 1.4
SA Rating (0-4) [4]: 4
Overall performance rating (second protocol rating) [5]: 4

CC(C)O [i-Propanol]
Overall performance rating (second protocol rating): 1
B1 + 0.0125% DDBS + 0.05% SA (air entrainment) (B1 FA/cement paste, […]): 3.7
B1 + 0.0125% DDBS + 0.1% SA (air entrainment) (B1 FA/cement paste, […]): 4.1
PCA + 0.1% SA (level of air entrainment by the candidate sacrificial agent) [3]: 2.4
SA Rating (0-4) [4]: 1

CC(O)COc1ccccc1 (centres unmarked) [Propylene Glycol Phenyl Ether]
B1 + 0.0125% DDBS + 0.05% SA (air entrainment) [1]: 7.2
B1 + 0.0125% DDBS + 0.1% SA (air entrainment) [2]: 6.7
PCA + 0.1% SA (level of air entrainment by the candidate sacrificial agent) [3]: 1.0
SA Rating (0-4) [4]: 4
Overall performance rating (second protocol rating) [5]: 4

O=C(O)c1cc(O)ccc1O [2,5-Dihydroxybenzoic acid]
B1 + 0.0125% DDBS + 0.05% SA (air entrainment) (B1 FA/cement paste, […]): 1.9
B1 + 0.0125% DDBS + 0.1% SA (air entrainment) (B1 FA/cement paste, […]): 1.6
PCA + 0.1% SA (level of air entrainment by the candidate sacrificial agent) [3]: 0.0
SA Rating (0-4) [4]: 0
